Measured values as given in patent publication US4073883A, “Method for treatment of impaired hearing” (priority 1976, dated 1978).

Columns and labels:
[1] = test system: patients having impaired hearing caused by administration of a drug; experiment: Clinical test on the administration of Coenzyme Q10 for impaired hearing (audiometry); type: in vivo, human
Description: 30 Mg/day of Coenzyme Q10 was administered perorally three times a day after meal. Duration of administration differed with patients in the range of from two weeks to four months.
Coenzyme Q10 was administered to 9 patients having impaired hearing caused by administration of a drug (an antibiotic called poison against hearing organs). 8 of 9 patients were being administered with some poison against hearing organs at the time of the first medical examination of otorhinology. The remaining one patient was given streptomycin more than 10 years before then. It was pointed out that labyrinthine disorder was observed already and the administration of the poisons against hearing organs was discontinued in 5 of the 8 cases. In the remaining 3 cases, the treatment of the diseases with the poisons against hearing organs was continued with administration of Coenzyme Q10.
In many cases, a combination of drugs such as combination of streptomycin (SM) with kanamycin (KM), kanendomycin (KDM) or gentamycin (GM) had been used.
Determination of hearing acuity threshold value in air conduction and bone conduction and recruitment test were effected using an audiometer in a sound-proof chamber.
The sum of the air conduction threshold value was determined in terms of decibel units and the values before and after the administration of Coenzyme Q10 were compared with each other.
Air condition region values at 125 Hz, 250 Hz, 1 KHz, 2 KHz, 4 KHz and 8 KHz in audiogram were added together to obtain a value called the total region value at that time. In case the difference in the value between before and after the administration of Coenzyme Q10 is more than ± 35 db, it was judged to be improved or worsened and in case the difference is within 35 db, it was judged to be unchanged. In case a threshold value of a certain frequency is scaled out, a value of the maximum output at that frequency plus 5 db. was employed.

rats of Wistar strain [2] = experiment: Chronic oral toxicity test in rats (26 weeks); type: in vivo
Description: Coenzyme Q10 was compulsorily and orally administered to each group consisting of 10 male rats and 10 female rats of Wistar strain for 26 consecutive weeks in a ratio of 6 days a week. The dose was 6, 60 and 600 mg/Kg/day, respectively. Coenzyme Q10 was used in the form of gum Arabic suspension, whereas the solution containing gum Arabic alone is used as the control group. Collection of blood and urine samples and autopsies were carried out 26 weeks after the administration.

mice = experiment: Teratogenesis test in mice; type: in vivo; conditions: 6, 60 and 600 mg/Kg/day
mice of ICR-JCL strain = experiment: Acute toxicity test in mice (single dose, 7 days observation); type: in vivo; conditions: for Maximum dose (no case of deaths): 7 days
Description: (§1) In order to evaluate the acute toxicity of a single high dose administration of Coenzyme Q10, male and female rats of Wistar strain and male and female mice of ICR-JCL strain were used, and oral, intramuscular, subcutaneous, and intravenous administrations were studied. For the oral administration of Coenzyme Q10, gum Arabic suspension was used. For the intramuscular, subcutaneous and intravenous administrations, Coenzyme Q10 was used as its solution in a nonionic surfactant, Nikkol HCO-60. Nikkol HCO-60 is a trade name of a non-ionic surfactant comprised of hydrogenated castor oil/polyoxyethylene-60 mole ether available from Nikko Chemicals, Co. Ltd., Japan.
(§2) Observations were carried out for 7 days by using six males and six females for each dose group.

rats of Wistar strain [3] = experiment: Subacute oral toxicity test in rats (5 weeks); type: in vivo
Description: Coenzyme Q10 was compulsorily and orally administered every day for 5 weeks to each group consisting of 10 male rats and 10 female rats of Wistar strain. The dose was 40, 200, and 1000 mg/Kg/day, respectively. Coenzyme Q10 was used in the form of gum Arabic suspension, while the solution containing gum Arabic alone was used as the control group. Collection of blood and urine samples and autopsies were carried out 5 weeks after the initiation of administration.

rats of Wistar strain [4] = experiment: Acute toxicity test in rats (single dose, 7 days observation); type: in vivo; conditions: for Maximum dose (no case of deaths): 7 days
Description: as §1, §2

rats = experiment: Teratogenesis test in rats; type: in vivo; conditions: 6, 60 and 600 mg/Kg/day
rabbits = experiment: Subacute oral toxicity test in rabbits (23 days); type: in vivo
Description: Coenzyme Q10 was compulsorily and orally administered every day for 23 days to each group consisting of 6 male rabbits and 5 female rabbits. The dose was 6, 60 and 600 mg/Kg/day, respectively. Coenzyme Q10 was used in the form of gum Arabic suspension, whereas the solution containing gum Arabic alone was used as the control group. On the 24th day, blood samples were collected from all the animals, and 3 males and 2 females from each group were then selectively autopsied.

[5] = attributed to spontaneous pneumonia and aspiration pneumonia due to an erroneous administration
[6] = intramuscular, in Nikkol HCO-60, single dose
[7] = intravenous, in Nikkol HCO-60, single dose
[8] = oral, gum Arabic suspension, single dose
[9] = relative to maximum doses of Table 1
[10] = subcutaneous, in Nikkol HCO-60, single dose
[11] = 6, 60, 600 mg/Kg/day oral, 23 days

COC1=C(OC)C(=O)C(C/C=C(\C)CC/C=C(\C)CC/C=C(\C)CC/C=C(\C)CC/C=C(\C)CC/C=C(\C)CC/C=C(\C)CC/C=C(\C)CC/C=C(\C)CCC=C(C)C)=C(C)C1=O [Coenzyme Q10]
effectiveness as a medicament for treating impaired hearing ([1]; overall conclusion): effective as a medicament for treating impaired hearing
ears improved (number of 18 ears) ([1]; with Coenzyme Q10, of 18 ears): 13 ears
ears improved (percent) ([1]; with Coenzyme Q10, of 18 ears): 72%
ears unchanged (number of 18 ears) ([1]; with Coenzyme Q10, of 18 ears): 5 ears
ears unchanged (percent) ([1]; with Coenzyme Q10, of 18 ears): 28%
worsening ([1]; with Coenzyme Q10, of 18 ears): no worsening being observed
body weight vs control (rats of Wistar strain [2]; 6, 60, 600 mg/Kg/day oral, 26 weeks): increased as same as that of the control group
general condition vs control (rats of Wistar strain [2]; 6, 60, 600 mg/Kg/day oral, 26 weeks, 6 days a week): no difference
biochemical tests of blood and urine vs control (rats of Wistar strain [2]; 26 weeks): No significant changes were recognized
weight of organs (rats of Wistar strain [2]; 26 weeks): no significant increase and decrease
deaths, females (rats of Wistar strain [2]; [5]): 3 females
deaths, males (rats of Wistar strain [2]; [5]): 11 males
toxicity (rats of Wistar strain [2]; chronic oral, 26 weeks, overall): no toxicity was observed
macroscopical and histological observation vs control (rats of Wistar strain [2]; hemoxylin.Eosine staining and liver fat staining, 26 weeks): abnormalities were not recognized
leukocytal percentages (rats of Wistar strain [2]; not dose related, within the extent of physiological fluctuations): some increase and decrease
adverse effects in mothers, fetuses, and newborns (mice): no adverse effects
toxicity (overall, acute) (mice of ICR-JCL strain; acute, overall): extremely low
Maximum dose (no case of deaths) (mice of ICR-JCL strain; [6]): 500 mg/kg
Maximum dose (no case of deaths) (mice of ICR-JCL strain; [7]): 250 mg/kg
deaths (mice of ICR-JCL strain; maximum dose in each route): no case of deaths
Maximum dose (no case of deaths) (mice of ICR-JCL strain; [8]): 4000 mg/kg
LD50 (mice of ICR-JCL strain; [9]): far higher than the maximum dose
Maximum dose (no case of deaths) (mice of ICR-JCL strain; [10]): 500 mg/kg
general condition and body weight vs control (rats of Wistar strain [3]; 40, 200, 1000 mg/Kg/day oral, 5 weeks): no difference
dead animals during the experiment (rats of Wistar strain [3]; attributed to spontaneous pneumonia and aspiration pneumonia due to an error of administration): 4 animals
toxicity seemingly due to the administration (rats of Wistar strain [3]; subacute oral, 5 weeks, overall): there was not recognized the toxicity
toxicity (overall, acute) (rats of Wistar strain [4]; acute, overall): extremely low
Maximum dose (no case of deaths) (rats of Wistar strain [4]; [6]): 500 mg/kg
Maximum dose (no case of deaths) (rats of Wistar strain [4]; [7]): 250 mg/kg
deaths (rats of Wistar strain [4]; maximum dose in each route): no case of deaths
Maximum dose (no case of deaths) (rats of Wistar strain [4]; [8]): 4000 mg/kg
LD50 (rats of Wistar strain [4]; [9]): far higher than the maximum dose
Maximum dose (no case of deaths) (rats of Wistar strain [4]; [10]): 500 mg/kg
adverse effects in mothers, fetuses, and newborns (rats): no adverse effects
general condition and increase of body weight vs control (rabbits; [11]): no difference
weight of each organ (rabbits; [11]): no effect
electron-microscopic observation of liver (rabbits; 7th, 14th, and 24th days after the administration): there were not recognized abnormal findings
findings suggesting toxicity (rabbits; subacute oral, 23 days, overall): there were not recognized the findings
